Test results from US9227967B2, “Inhibitor compounds of semicarbazide-sensitive amine oxidases” (Proximagen Limited, priority 2010, dated 2016).
Counter-ions that a name gives are not always drawn.

These molecules were tested against T1, human SSAO (Homo sapiens, UniProt Q16853) (assay: SSAO enzyme inhibition assay (benzylamine substrate; HRP-coupled hydrogen peroxide detection or 14C-benzaldehyde detection)). Conditions: purified recombinantly expressed human SSAO, benzylamine as substrate, r.t.; read-out: SSAO inhibitory activity IC50.
T1 construct: made in house
T1 sequence (Q16853 29-763 limits assumed): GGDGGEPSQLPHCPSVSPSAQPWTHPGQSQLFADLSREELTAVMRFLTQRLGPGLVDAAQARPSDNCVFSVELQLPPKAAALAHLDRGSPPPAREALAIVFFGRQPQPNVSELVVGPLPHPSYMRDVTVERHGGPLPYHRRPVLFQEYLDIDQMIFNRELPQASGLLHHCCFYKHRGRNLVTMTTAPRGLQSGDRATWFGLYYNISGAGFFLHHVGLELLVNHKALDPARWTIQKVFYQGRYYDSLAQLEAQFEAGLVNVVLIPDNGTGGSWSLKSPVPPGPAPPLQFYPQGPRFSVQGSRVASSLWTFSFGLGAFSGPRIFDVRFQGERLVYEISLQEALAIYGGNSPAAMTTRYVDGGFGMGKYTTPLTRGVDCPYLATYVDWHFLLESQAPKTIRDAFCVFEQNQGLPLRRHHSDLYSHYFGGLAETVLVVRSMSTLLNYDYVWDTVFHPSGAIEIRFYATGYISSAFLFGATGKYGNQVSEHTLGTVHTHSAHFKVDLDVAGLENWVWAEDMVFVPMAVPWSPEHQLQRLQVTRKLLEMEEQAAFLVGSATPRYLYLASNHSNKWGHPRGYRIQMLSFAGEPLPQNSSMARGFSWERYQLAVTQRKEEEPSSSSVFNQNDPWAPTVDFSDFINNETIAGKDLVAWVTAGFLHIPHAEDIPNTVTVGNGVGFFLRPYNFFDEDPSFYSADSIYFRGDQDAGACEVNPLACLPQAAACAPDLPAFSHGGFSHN
Type: biochemical
Summary of the method: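 Purified recombinant human SSAO, pre-incubated ~15 min at r.t. with compound, then benzylamine added; final DMSO ≦2%. HRP-coupled Amplex format in 50 mM sodium phosphate pH 7.4: enzyme 1 μg/ml, benzylamine 100 μM (≈Km), fluorescence over 1-2 h; 14C format: enzyme 10 μg/ml, benzylamine 40 μM, 1 h. IC50 from four-parameter fit.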
`Cc1ccc(-n2nc(C3CNCCO3)c3ccncc32)cc1` (centres unmarked) [Compound 86, 2-[1-(4-Methylphenyl)-1H-pyrazolo[3,4-c]pyridin-3-yl]morpholine] gave an IC50 of 0.5 to 2.5 µM. Molecule `Cc1ccc(-n2nc(N3CCOCC3C(=O)N3CCOCC3)c3ccncc32)cc1` (centres unmarked) [Compound 78, 4-[1-(4-Methylphenyl)-1H-pyrazolo[3,4-c]pyridin-3-yl]-3-[(morpholin-4-yl)carbonyl]morpholine] has an IC50 of 0.5 to 2.5 µM. `Cc1ccc(-n2nc(N3CCOCC3C(N)=O)c3ccncc32)cc1` (centres unmarked) [Compound 77, 4-[1-(4-Methylphenyl)-1H-pyrazolo[3,4-c]pyridin-3-yl]morpholine-3-carboxamide] gave an IC50 of 0.5 to 2.5 µM. Molecule `NCC(=O)N1CCC(c2cn(-c3ccc(Cl)cc3)c3cnccc23)CC1` [Compound 16, 2-Amino-{4-[1-(4-chlorophenyl)-1H-pyrrolo[2,3-c]pyridin-3-yl]piperidin-1-yl}-ethan-1-one hydrochloride] has an IC50 of less than 0.1 µM. In the case of `Clc1ccc(-c2cn(C3CCNCC3)c3ccncc23)cc1Cl` [Compound 6, 4-[3-(3,4-Dichlorophenyl)-1H-pyrrolo[3,2-c]pyridin-1-yl]piperidine hydrochloride], the IC50 is reported as 0.5 to 2.5 µM.
